{
  "source": "patent US20250154525A1",
  "about": "“PLANT VIRUS MOVEMENT PROTEINS AND METHODS OF USING SAME” (Molecular Transfer, Inc., priority 2016, published 2025)",
  "key": {"some examined cell types": {"tested_on": "some examined cell types", "test": "Summary of Example 1: transfection expression and % cells transfected over the no peptide control", "assay_type": "cell-based", "conditions": "on some examined cell types", "method": "(§1) Cells were plated to so that on the day of transfection the cells were 70% confluent in 96 well tissue culture plates. A DOMTA/DOPE Lipid solution (1:1 molar ratio) at 2 mg/mL in water were mixed with an equal volume cell surface ligand containing adhesion peptide, the plant virus movement protein, or peptide derived therefrom, that had the nucleic acid binding moiety RRRRRRRRRRRR (SEQ ID NO:109) or KKKKKKKKKKKKKKKK (SEQ ID NO: 102) covalently linked to the N-terminus, or C-terminus of each peptide during peptide synthesis. Peptides were at 2 mg/mL in water. The DOTMA/DOPE and the solution containing the cell surface ligand containing adhesion peptide, the plant virus movement protein, or peptide derived therefrom, surface ligand peptide the was diluted 1 to 1 (v/v) in water. DOMTA/DOPE/PEPTIDE solutions were added to 0.1 mL of a plasmid DNA solution (EF1Alpha eGFP plasmid) at 10 μg/mL in OptiMEM.\n(§2) All solutions were at room temperature. A volume of 0.2 mL of a 10 μg/mL solution of DNA was aliquoted into each well of a non-tissue cultured treated plate. 1-12 μL of transfection reagents were added to DNA solutions respectively. The transfection reagent and DNA solution was mixed by pipetting up and down twice. Transfection complexes were formed for 10 minutes. After 10 minutes, 0.01 or 0.02 mL of the transfection complex was added to cells. HuVEC, HeLa, human adult keratinocytes, human primary adult fibroblast, and A549 cells all respectively received 0.01 mL of the transfection complex. Human skeletal muscle cells, mouse C2C12 cells, and Jurkat, cells received 0.02 mL of the transfection complex. Cells were incubated for 42 hours at 37° C. at 5% CO2. Plates were read on a fluorescent plate reader. Cells were also examined visually under a microscope to assess the extent of transfection (in terms of the percent of cells transfected) with a fluorescent microscope. Other modes of analysis, for example quantification with B-galactocidase or luciferase reports plasmids can also be used.\n(§3) Surface ligand that caused increase expression of GFP over the lipid DOTMA with no surface ligand were considered to enhance transfection or had higher % cells transfected were considered to enhance transfection. Peptides that gave greater than 2-fold enhancement are noted in bold and could be further optimized by adding different transfection enhancers or could be used with different cationic lipids or polymers."}, "C2C12 Cells": {"tested_on": "C2C12 Cells", "test": "GFP plasmid transfection with DOTMA/DOPE plus surface ligand peptide, fluorescent plate reader (Example 1)", "assay_type": "cell-based, mouse", "conditions": "DOTMA/DOPE + peptide linked to R12 or K16; EF1Alpha eGFP plasmid; 42 hours", "method": "as §1, §2, §3\n(§4) Tables 2-7, below, provide the results of the transfection enhancements with the various cell types, while Table 8 lists the peptides that were determined by visual inspection to enhance the transfection of the denoted cell lines over the lipid DOTMA."}, "Human Fibroblast Cells": {"tested_on": "Human Fibroblast Cells", "test": "GFP plasmid transfection with DOTMA/DOPE plus surface ligand peptide, fluorescent plate reader (Example 1)", "assay_type": "cell-based", "conditions": "DOTMA/DOPE + peptide linked to R12 or K16; EF1Alpha eGFP plasmid; 42 hours", "method": "as §1, §2, §3, §4"}, "HeLa Cells": {"tested_on": "HeLa Cells", "test": "GFP plasmid transfection with DOTMA/DOPE plus surface ligand peptide, fluorescent plate reader (Example 1)", "assay_type": "cell-based", "conditions": "DOTMA/DOPE + peptide linked to R12 or K16; EF1Alpha eGFP plasmid; 42 hours", "method": "as §1, §2, §3, §4"}, "HuVec Cells": {"tested_on": "HuVec Cells", "test": "GFP plasmid transfection with DOTMA/DOPE plus surface ligand peptide, fluorescent plate reader (Example 1)", "assay_type": "cell-based", "conditions": "DOTMA/DOPE + peptide linked to R12 or K16; EF1Alpha eGFP plasmid; 42 hours", "method": "as §1, §2, §3, §4"}, "Jurkat Cells": {"tested_on": "Jurkat Cells", "test": "GFP plasmid transfection with DOTMA/DOPE plus surface ligand peptide, fluorescent plate reader (Example 1)", "assay_type": "cell-based", "conditions": "DOTMA/DOPE + peptide linked to R12 or K16; EF1Alpha eGFP plasmid; 42 hours", "method": "as §1, §2, §3, §4"}, "NL-1 iPS Cells": {"tested_on": "NL-1 iPS Cells", "test": "GFP plasmid transfection with DOTMA/DOPE plus surface ligand peptide, fluorescent plate reader (Example 1)", "assay_type": "cell-based", "conditions": "DOTMA/DOPE + peptide linked to R12 or K16; EF1Alpha eGFP plasmid; 42 hours", "method": "as §1, §2, §3, §4"}},
  "data": [
    {"substance": "393 (LGTIPG) [compound 393]", "values": [
      {"measurement": "transfection expression and % cells transfected over the no peptide control", "setting": "some examined cell types", "result": "increased transfection expression and the % cells transfected"}
    ]},
    {"substance": "338 (GTPGPQGIA) [compound 338]", "values": [
      {"measurement": "transfection expression and % cells transfected over the no peptide control", "setting": "some examined cell types", "result": "increased transfection expression and the % cells transfected"},
      {"measurement": "Relative Fluorescence of Transfection of C2C12 Cells (RF)", "setting": "C2C12 Cells", "result": 2290},
      {"measurement": "Relative Fluorescence of Transfection of Human Fibroblast Cells (RF)", "setting": "Human Fibroblast Cells", "result": 5625},
      {"measurement": "Relative Fluorescence of Transfection of HeLa Cells (RF)", "setting": "HeLa Cells", "result": 6241},
      {"measurement": "Relative Fluorescence of Transfection of HuVec Cells (RF)", "setting": "HuVec Cells", "result": 12000},
      {"measurement": "Relative Fluorescence of Transfection of Jurkat Cells (RF)", "setting": "Jurkat Cells", "result": 4475},
      {"measurement": "Relative Fluorescence of Transfection of NL-1 iPS Cells (RF)", "setting": "NL-1 iPS Cells", "result": 17288}
    ]},
    {"substance": "230 (WQPPRARI) [compound 230]", "values": [
      {"measurement": "transfection expression and % cells transfected over the no peptide control", "setting": "some examined cell types", "result": "increased transfection expression and the % cells transfected"},
      {"measurement": "Relative Fluorescence of Transfection of C2C12 Cells (RF)", "setting": "C2C12 Cells", "result": 2606},
      {"measurement": "Relative Fluorescence of Transfection of Human Fibroblast Cells (RF)", "setting": "Human Fibroblast Cells", "result": 11771},
      {"measurement": "Relative Fluorescence of Transfection of HeLa Cells (RF)", "setting": "HeLa Cells", "result": 8944},
      {"measurement": "Relative Fluorescence of Transfection of HuVec Cells (RF)", "setting": "HuVec Cells", "result": 9067},
      {"measurement": "Relative Fluorescence of Transfection of Jurkat Cells (RF)", "setting": "Jurkat Cells", "result": 10229},
      {"measurement": "Relative Fluorescence of Transfection of NL-1 iPS Cells (RF)", "setting": "NL-1 iPS Cells", "result": 14524}
    ]},
    {"substance": "239 (KNSFMALYLSKGRLVFALG) [compound 239]", "values": [
      {"measurement": "transfection expression and % cells transfected over the no peptide control", "setting": "some examined cell types", "result": "increased transfection expression and the % cells transfected"},
      {"measurement": "Relative Fluorescence of Transfection of C2C12 Cells (RF)", "setting": "C2C12 Cells", "result": 10620},
      {"measurement": "Relative Fluorescence of Transfection of Human Fibroblast Cells (RF)", "setting": "Human Fibroblast Cells", "result": 4084},
      {"measurement": "Relative Fluorescence of Transfection of HeLa Cells (RF)", "setting": "HeLa Cells", "result": 2717},
      {"measurement": "Relative Fluorescence of Transfection of HuVec Cells (RF)", "setting": "HuVec Cells", "result": 1404},
      {"measurement": "Relative Fluorescence of Transfection of Jurkat Cells (RF)", "setting": "Jurkat Cells", "result": 2343},
      {"measurement": "Relative Fluorescence of Transfection of NL-1 iPS Cells (RF)", "setting": "NL-1 iPS Cells", "result": 4129}
    ]},
    {"substance": "345 (TAGSCLRKFSTMFLF) [compound 345]", "values": [
      {"measurement": "transfection expression and % cells transfected over the no peptide control", "setting": "some examined cell types", "result": "increased transfection expression and the % cells transfected"},
      {"measurement": "Relative Fluorescence of Transfection of C2C12 Cells (RF)", "setting": "C2C12 Cells", "result": 6569},
      {"measurement": "Relative Fluorescence of Transfection of Human Fibroblast Cells (RF)", "setting": "Human Fibroblast Cells", "result": 2816},
      {"measurement": "Relative Fluorescence of Transfection of HeLa Cells (RF)", "setting": "HeLa Cells", "result": 8493},
      {"measurement": "Relative Fluorescence of Transfection of HuVec Cells (RF)", "setting": "HuVec Cells", "result": 2939},
      {"measurement": "Relative Fluorescence of Transfection of Jurkat Cells (RF)", "setting": "Jurkat Cells", "result": 2462},
      {"measurement": "Relative Fluorescence of Transfection of NL-1 iPS Cells (RF)", "setting": "NL-1 iPS Cells", "result": 7836}
    ]},
    {"substance": "229 (PPFLMLLKGSTR) [compound 229]", "values": [
      {"measurement": "transfection expression and % cells transfected over the no peptide control", "setting": "some examined cell types", "result": "increased transfection expression and the % cells transfected"},
      {"measurement": "Relative Fluorescence of Transfection of C2C12 Cells (RF)", "setting": "C2C12 Cells", "result": 1164},
      {"measurement": "Relative Fluorescence of Transfection of Human Fibroblast Cells (RF)", "setting": "Human Fibroblast Cells", "result": 6811},
      {"measurement": "Relative Fluorescence of Transfection of HeLa Cells (RF)", "setting": "HeLa Cells", "result": 8816},
      {"measurement": "Relative Fluorescence of Transfection of HuVec Cells (RF)", "setting": "HuVec Cells", "result": 5452},
      {"measurement": "Relative Fluorescence of Transfection of Jurkat Cells (RF)", "setting": "Jurkat Cells", "result": 8079},
      {"measurement": "Relative Fluorescence of Transfection of NL-1 iPS Cells (RF)", "setting": "NL-1 iPS Cells", "result": 13491}
    ]},
    {"substance": "216 (YRVRVTPKEKTGPMKE) [compound 216]", "values": [
      {"measurement": "transfection expression and % cells transfected over the no peptide control", "setting": "some examined cell types", "result": "increased transfection expression and the % cells transfected"},
      {"measurement": "Relative Fluorescence of Transfection of C2C12 Cells (RF)", "setting": "C2C12 Cells", "result": 1001},
      {"measurement": "Relative Fluorescence of Transfection of Human Fibroblast Cells (RF)", "setting": "Human Fibroblast Cells", "result": 3117},
      {"measurement": "Relative Fluorescence of Transfection of HeLa Cells (RF)", "setting": "HeLa Cells", "result": 6181},
      {"measurement": "Relative Fluorescence of Transfection of HuVec Cells (RF)", "setting": "HuVec Cells", "result": 14693},
      {"measurement": "Relative Fluorescence of Transfection of Jurkat Cells (RF)", "setting": "Jurkat Cells", "result": 3570},
      {"measurement": "Relative Fluorescence of Transfection of NL-1 iPS Cells (RF)", "setting": "NL-1 iPS Cells", "result": 19626}
    ]},
    {"substance": "327 (VAEIDGIEL) [compound 327]", "values": [
      {"measurement": "transfection expression and % cells transfected over the no peptide control", "setting": "some examined cell types", "result": "increased transfection expression and the % cells transfected"},
      {"measurement": "Relative Fluorescence of Transfection of C2C12 Cells (RF)", "setting": "C2C12 Cells", "result": 2043},
      {"measurement": "Relative Fluorescence of Transfection of Human Fibroblast Cells (RF)", "setting": "Human Fibroblast Cells", "result": 4662},
      {"measurement": "Relative Fluorescence of Transfection of HeLa Cells (RF)", "setting": "HeLa Cells", "result": 5345},
      {"measurement": "Relative Fluorescence of Transfection of HuVec Cells (RF)", "setting": "HuVec Cells", "result": 21018},
      {"measurement": "Relative Fluorescence of Transfection of Jurkat Cells (RF)", "setting": "Jurkat Cells", "result": 14546},
      {"measurement": "Relative Fluorescence of Transfection of NL-1 iPS Cells (RF)", "setting": "NL-1 iPS Cells", "result": 31383}
    ]},
    {"substance": "349 (RNIAEIIKDI) [compound 349]", "values": [
      {"measurement": "transfection expression and % cells transfected over the no peptide control", "setting": "some examined cell types", "result": "increased transfection expression and the % cells transfected"},
      {"measurement": "Relative Fluorescence of Transfection of Human Fibroblast Cells (RF)", "setting": "Human Fibroblast Cells", "result": 8810},
      {"measurement": "Relative Fluorescence of Transfection of HeLa Cells (RF)", "setting": "HeLa Cells", "result": 4433},
      {"measurement": "Relative Fluorescence of Transfection of HuVec Cells (RF)", "setting": "HuVec Cells", "result": 22907},
      {"measurement": "Relative Fluorescence of Transfection of Jurkat Cells (RF)", "setting": "Jurkat Cells", "result": 23167},
      {"measurement": "Relative Fluorescence of Transfection of NL-1 iPS Cells (RF)", "setting": "NL-1 iPS Cells", "result": 33103}
    ]}
  ]
}
